From US9216999B2, “Substituted pyrrolo[2,3-h][1,6]naphthyridines and compositions thereof as JAK inhibitors” (priority 2011, dated 2015)

Tests used:
JAK2 = JAK2 (Homo sapiens (Human), UniProt O60674); test: JAK2 enzyme assay (Assay Example^b 1)
JAK3 = JAK3 (Homo sapiens (Human), UniProt P52333); test: JAK3 enzyme assay (Assay Example^b 1)
Tyk2 = Tyk2 (Homo sapiens (Human), UniProt P29597); test: Tyk2 enzyme assay (Assay Example^b 1); conditions: ATP 100 μM
JAK1 = JAK1 (Homo sapiens (Human), UniProt P23458); test: JAK1 enzyme assay (Assay Example^b 1)
[1] = IC50 (μM) JAK2, Table^b 80, ATP 100 μM
[2] = IC50 (μM) JAK3, Table^b 80, ATP 100 μM
[3] = IC50 (μM) JAK3, Table^b 78, ATP 100 μM
[4] = IC50 (μM) JAK1, Table^b 78, ATP 100 μM
[5] = IC50 (μM) JAK1, Table^b 80, ATP 100 μM
[6] = IC50 (μM) JAK2, Table^b 79, ATP 100 μM

Sequence of Tyk2 (P29597 whole entry): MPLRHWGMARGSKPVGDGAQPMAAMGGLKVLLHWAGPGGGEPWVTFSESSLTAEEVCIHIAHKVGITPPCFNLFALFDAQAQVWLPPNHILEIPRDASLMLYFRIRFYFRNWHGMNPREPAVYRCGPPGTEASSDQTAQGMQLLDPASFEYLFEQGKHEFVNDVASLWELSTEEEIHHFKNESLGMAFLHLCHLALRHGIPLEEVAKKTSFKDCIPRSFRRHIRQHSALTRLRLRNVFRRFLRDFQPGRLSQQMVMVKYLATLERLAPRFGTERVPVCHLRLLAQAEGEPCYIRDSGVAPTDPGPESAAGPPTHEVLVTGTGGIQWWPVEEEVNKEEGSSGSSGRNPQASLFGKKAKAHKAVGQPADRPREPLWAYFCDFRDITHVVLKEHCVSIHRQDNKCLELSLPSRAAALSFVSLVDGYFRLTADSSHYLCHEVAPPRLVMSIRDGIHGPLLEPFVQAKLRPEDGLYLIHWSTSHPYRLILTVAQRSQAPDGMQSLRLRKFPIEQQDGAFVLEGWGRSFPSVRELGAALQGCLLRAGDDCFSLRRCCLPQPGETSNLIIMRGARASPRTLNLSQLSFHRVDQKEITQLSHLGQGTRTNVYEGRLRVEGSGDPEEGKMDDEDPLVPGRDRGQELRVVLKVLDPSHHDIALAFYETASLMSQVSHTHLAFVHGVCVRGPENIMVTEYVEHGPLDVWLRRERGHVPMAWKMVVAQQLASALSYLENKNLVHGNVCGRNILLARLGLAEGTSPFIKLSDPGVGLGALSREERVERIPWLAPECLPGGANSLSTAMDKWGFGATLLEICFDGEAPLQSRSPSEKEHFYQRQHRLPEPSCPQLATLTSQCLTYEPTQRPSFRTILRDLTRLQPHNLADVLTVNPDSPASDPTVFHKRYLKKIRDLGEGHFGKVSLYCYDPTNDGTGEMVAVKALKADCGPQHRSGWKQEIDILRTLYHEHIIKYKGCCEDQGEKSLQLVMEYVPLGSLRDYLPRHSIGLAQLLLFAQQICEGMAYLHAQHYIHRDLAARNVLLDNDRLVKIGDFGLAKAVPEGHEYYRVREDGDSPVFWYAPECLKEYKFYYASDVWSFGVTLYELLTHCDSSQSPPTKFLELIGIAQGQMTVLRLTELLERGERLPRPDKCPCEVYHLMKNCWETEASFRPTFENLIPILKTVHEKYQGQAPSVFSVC
Sequence of JAK3 (P52333 whole entry): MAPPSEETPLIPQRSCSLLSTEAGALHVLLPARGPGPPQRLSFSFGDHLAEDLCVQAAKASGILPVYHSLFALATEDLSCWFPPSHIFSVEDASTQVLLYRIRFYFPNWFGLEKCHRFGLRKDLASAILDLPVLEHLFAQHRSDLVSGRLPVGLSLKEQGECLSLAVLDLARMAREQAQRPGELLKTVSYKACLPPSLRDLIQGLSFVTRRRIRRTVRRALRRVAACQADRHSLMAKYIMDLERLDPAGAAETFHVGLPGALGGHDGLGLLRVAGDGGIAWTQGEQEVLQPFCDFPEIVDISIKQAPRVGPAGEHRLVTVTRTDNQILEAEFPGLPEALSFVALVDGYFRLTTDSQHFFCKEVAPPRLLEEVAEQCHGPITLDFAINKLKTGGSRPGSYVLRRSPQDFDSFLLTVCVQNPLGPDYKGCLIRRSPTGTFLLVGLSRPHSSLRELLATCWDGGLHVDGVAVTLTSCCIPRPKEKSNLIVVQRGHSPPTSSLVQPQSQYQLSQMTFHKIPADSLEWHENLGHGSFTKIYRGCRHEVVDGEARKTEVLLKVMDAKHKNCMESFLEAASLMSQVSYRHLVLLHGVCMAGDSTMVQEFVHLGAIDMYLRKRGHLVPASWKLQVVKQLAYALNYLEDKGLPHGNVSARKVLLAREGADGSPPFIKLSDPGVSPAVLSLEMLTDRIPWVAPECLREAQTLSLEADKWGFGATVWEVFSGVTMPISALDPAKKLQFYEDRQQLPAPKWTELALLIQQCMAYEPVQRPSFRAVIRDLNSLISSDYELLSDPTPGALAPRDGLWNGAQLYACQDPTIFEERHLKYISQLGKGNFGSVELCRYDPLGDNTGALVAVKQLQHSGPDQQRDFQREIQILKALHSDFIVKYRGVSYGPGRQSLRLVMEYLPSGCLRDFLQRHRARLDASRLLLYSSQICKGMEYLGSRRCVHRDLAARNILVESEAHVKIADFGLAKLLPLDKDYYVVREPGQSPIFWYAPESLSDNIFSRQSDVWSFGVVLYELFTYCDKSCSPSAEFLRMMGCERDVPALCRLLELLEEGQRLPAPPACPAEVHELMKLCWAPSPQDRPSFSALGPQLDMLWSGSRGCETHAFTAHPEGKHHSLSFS

O=c1ccn(C2CCN(Cc3ccc(Br)o3)CC2)c2c1cnc1[nH]ccc12 [compound 80]
IC50 (JAK2; [1]): 0.02 µM | IC50 (JAK3; [2]): 0.34 µM | IC50 (Tyk2; IC50 (μM) TYK2, Table^b 80): 0.24 µM

C[C@@H]1CCN(S(=O)(=O)c2cccc(C(F)(F)F)c2)C[C@@H]1n1ccc(=O)c2cnc3[nH]ccc3c21 (racemic) [compound 33]
IC50 (JAK2; IC50 (μM) JAK2): 0.12 µM

O=C1NCc2cnc3[nH]ccc3c2N1C1CCN(Cc2ccccc2)CC1 [compound 59]
IC50 (JAK3; [2]): 2.1 µM | IC50 (Tyk2; IC50 (μM) TYK2, Table^b 80): 4.3 µM

O=c1[nH]c(=O)n(C2CCN(CC3CC3)CC2)c2c1cnc1[nH]ccc12 [compound 91]
IC50 (JAK3; IC50 (μM) JAK3, ATP 100 μM): > 1 µM

O=c1[nH]c(=O)n(C2CCC(CNCC3CC3)CC2)c2c1cnc1[nH]ccc12 (stereo not shown) [compound 117]
IC50 (JAK3; IC50 (μM) JAK3, ATP 100 μM): > 1 µM | IC50 (JAK1; IC50 (μM) JAK1, ATP 100 μM): 0.03 µM

C[C@@H]1CCN(C(=O)c2ccccc2C(F)(F)F)C[C@@H]1n1ccc(=O)c2cnc3[nH]ccc3c21 (racemic) [compound 30]
IC50 (JAK3; [2]): > 1 µM

O=c1ccn(C2CCN(Cc3ccc4[nH]ccc4c3)CC2)c2c1cnc1[nH]ccc12 [compound 85]
IC50 (JAK3; [2]): > 1 µM

N#CC=CC1CCC(n2c(=O)[nH]c(=O)c3cnc4[nH]ccc4c32)CC1 (stereo not shown) [compound 103]
IC50 (JAK3; IC50 (μM) JAK3, ATP 100 μM): > 1 µM

O=c1[nH]c(=O)n([C@H]2CC[C@H](CN3CC[C@@H](O)C3)CC2)c2c1cnc1[nH]ccc12 [compound 112]
IC50 (JAK1; IC50 (μM) JAK1, ATP 100 μM): 0.0026 µM

O=c1[nH]c(=O)n([C@H]2CC[C@H](CNCC3(O)CCCCC3)CC2)c2c1cnc1[nH]ccc12 [compound 126]
IC50 (JAK3; IC50 (μM) JAK3, ATP 100 μM): > 1 µM

CC1OCN(C2CCCCC2)c2c1cnc1[nH]ccc21 (stereo not shown) [compound 1]
IC50 (JAK3; [3]): 2 µM | IC50 (JAK1; [4]): 0.38 µM | IC50 (Tyk2; IC50 (μM) TYK2, Table^b 79): 4.1 µM

O=S1(=O)C=CN(C2CCCCC2)c2c1cnc1[nH]ccc21 [compound 12]
IC50 (JAK1; [4]): 0.13 µM | IC50 (Tyk2; IC50 (μM) TYK2, Table^b 79): > 1 µM

Cc1cn([C@H]2CN(Cc3ccccc3)CC[C@H]2C)c2c(cnc3[nH]ccc32)c1=O (racemic) [compound 23]
IC50 (JAK1; [5]): 0.035 µM

O=c1c2cnc3[nH]ccc3c2n(C2CCCCC2)c(=O)n1CCN1CCOCC1 [compound 142]
IC50 (JAK3; IC50 (μM) JAK3, ATP 100 μM): > 1 µM

CC1CCN(C(=O)C2CCC(C(C)(C)C)CC2)CC1n1ccc(=O)c2cnc3[nH]ccc3c21 (single isomer, unassigned) [Synthetic Example^b 48a, 1-{1-[4-(tert-Butyl)cyclohexanecarbonyl]-4-methylpiperidin-3-yl}-1H-pyrrolo[2,3-h][1,6]naphthyridin-4(7H)-one]
IC50 (JAK3; [2]): > 1 µM | IC50 (JAK1; [5]): 0.14 µM | IC50 (Tyk2; IC50 (μM) TYK2, Table^b 80): > 1 µM

CN(C)CCn1c(=O)c2cnc3[nH]ccc3c2n(C2CCCCC2)c1=O [compound 153]
IC50 (JAK3; IC50 (μM) JAK3, ATP 100 μM): > 1 µM

O=c1c2cnc3[nH]ccc3c2n(C2CCCCC2)c(=O)n1C1CCNCC1 [compound 154]
IC50 (JAK3; IC50 (μM) JAK3, ATP 100 μM): > 1 µM

CC(CO)(CO)Cn1c(=O)c2cnc3[nH]ccc3c2n(C2CCCCC2)c1=O [compound 151]
IC50 (JAK3; IC50 (μM) JAK3, ATP 100 μM): > 1 µM

O=C1NCc2cnc3[nH]ccc3c2N1C1CCCCC1 [compound 17]
IC50 (JAK2; [6]): 0.02 µM | IC50 (JAK3; [3]): 0.69 µM | IC50 (Tyk2; IC50 (μM) TYK2, Table^b 79): 0.093 µM

O=c1ccn(C2CCN(Cc3cnc(Br)s3)CC2)c2c1cnc1[nH]ccc12 [compound 83]
IC50 (JAK3; [2]): 0.62 µM

O=C1NCc2cnc3[nH]ccc3c2N1C1CCN(Cc2cncs2)CC1 [compound 66]
IC50 (JAK2; [1]): 0.14 µM | IC50 (JAK1; [5]): 0.08 µM | IC50 (Tyk2; IC50 (μM) TYK2, Table^b 80): 0.99 µM

c1cc2c3c(cnc2[nH]1)COCN3C1CCCCC1 [compound 2]
IC50 (JAK2; [6]): 1.9 µM | IC50 (JAK1; [4]): 0.33 µM

O=C(CC(F)(F)F)N(CC(F)(F)F)C[C@H]1CC[C@H](n2c(=O)[nH]c(=O)c3cnc4[nH]ccc4c32)CC1 [compound 155]
IC50 (JAK2; IC50 (μM) JAK2, ATP 100 μM): 0.055 µM | IC50 (JAK1; IC50 (μM) JAK1, ATP 100 μM): 0.0021 µM

CO[C@H]1CC[C@H](n2ccc(=O)c3cnc4[nH]ccc4c32)CC1 [compound 70]
IC50 (JAK3; [2]): > 1 µM

O=c1[nH]c(=O)n(C2CCN(Cc3ccc(C(F)(F)F)cc3)CC2)c2c1cnc1[nH]ccc12 [compound 52]
IC50 (JAK3; [2]): > 1 µM

C[C@@H]1CCN(C(=O)CC#N)C[C@@H]1N1COCc2cnc3[nH]ccc3c21 (racemic) [compound 16]
IC50 (JAK3; [3]): 0.11 µM | IC50 (JAK1; [4]): 0.038 µM

O=c1[nH]c(=O)n(C2CCC(CN(CCO)Cc3ccccc3)CC2)c2c1cnc1[nH]ccc12 (stereo not shown) [compound 121]
IC50 (JAK3; IC50 (μM) JAK3, ATP 100 μM): > 1 µM
